According to article PMC2867072 (Chemical communications (Cambridge, England), 2010):
pIC50: −log10 of the molar value. Where two headings read alike, the source gives them in different places.

How the values were obtained:
MMP-9 (gelatinase-B) = MMP-9 (gelatinase-B) (Homo sapiens, UniProt P14780); assay: fluorescence-based MMP-9 inhibition assay; format: biochemical; conditions: for inhibition at 1000 µM: read-out: percent inhibition of MMP-9
MMP-8 = MMP-8 (Homo sapiens, UniProt P22894); assay: fluorescence-based MMP-8 inhibition assay; format: biochemical; conditions: MMP-8, fluorescence based assay
Chain of MMP-8 (P22894 101-467, species assumed): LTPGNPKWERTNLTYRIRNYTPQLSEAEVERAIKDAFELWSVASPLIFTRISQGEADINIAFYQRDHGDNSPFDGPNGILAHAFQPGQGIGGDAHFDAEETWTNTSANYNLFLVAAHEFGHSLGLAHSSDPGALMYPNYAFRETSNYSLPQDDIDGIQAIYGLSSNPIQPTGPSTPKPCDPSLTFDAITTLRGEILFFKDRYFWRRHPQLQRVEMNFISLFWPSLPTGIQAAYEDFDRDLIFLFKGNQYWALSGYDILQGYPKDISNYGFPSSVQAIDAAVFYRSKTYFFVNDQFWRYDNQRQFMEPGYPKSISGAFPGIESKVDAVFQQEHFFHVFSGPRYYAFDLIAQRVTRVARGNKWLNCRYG

Chain of MMP-9 (gelatinase-B) (P14780 94-707, species assumed): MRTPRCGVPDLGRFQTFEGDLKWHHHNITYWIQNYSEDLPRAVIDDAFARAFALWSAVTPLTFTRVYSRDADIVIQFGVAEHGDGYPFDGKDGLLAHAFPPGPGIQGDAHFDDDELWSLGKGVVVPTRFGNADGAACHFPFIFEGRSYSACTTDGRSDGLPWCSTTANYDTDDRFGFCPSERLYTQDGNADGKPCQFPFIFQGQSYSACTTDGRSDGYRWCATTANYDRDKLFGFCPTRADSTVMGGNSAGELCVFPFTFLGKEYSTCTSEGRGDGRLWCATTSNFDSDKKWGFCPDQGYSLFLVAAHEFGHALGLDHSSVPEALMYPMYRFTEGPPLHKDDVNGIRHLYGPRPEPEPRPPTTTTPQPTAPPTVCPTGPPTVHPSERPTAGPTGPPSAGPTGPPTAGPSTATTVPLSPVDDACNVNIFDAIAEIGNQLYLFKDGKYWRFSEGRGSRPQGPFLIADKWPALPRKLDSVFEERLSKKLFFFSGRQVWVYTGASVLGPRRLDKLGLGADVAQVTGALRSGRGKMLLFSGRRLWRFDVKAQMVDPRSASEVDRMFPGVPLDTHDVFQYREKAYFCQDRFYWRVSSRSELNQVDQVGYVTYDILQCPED

Cc1occc(=S)c1O [Compound 5, 3-hydroxy-2-methyl-4-pyrothione]
pIC50 (MMP-9 (gelatinase-B)): 3.86 | inhibition at 1000 µM (MMP-9 (gelatinase-B)): ~50%

Cc1occc(=O)c1O [Compound 3, 3-hydroxy-2-methyl-4-pyrone]
pIC50 (MMP-9 (gelatinase-B)): 2.39 | inhibition at 1000 µM (MMP-9 (gelatinase-B)): ~50%

O=C(NCc1ccc(-c2ccccc2)cc1)c1cccc(=O)n1O [Compound 7, 1,2-HOPO-2]
pIC50 (MMP-9 (gelatinase-B); MMP-9, fluorescence based assay): 5.57 | pIC50 (MMP-8): 7.12
